Read-outs that look alike come from different tables or passages of the source. Positions of bridges follow the written chain, without caps; N, C: chain ends. Non-standard residues stand in square brackets, D forms with d. Residues, ends and D or L forms follow the SMILES beside them. Chains are numbered I, II in the order given. Bpa = N[C@@H](Cc1ccc(C(=O)c2ccccc2)cc1)C(=O)O; Dip = N[C@H](C(=O)O)C(c1ccccc1)c1ccccc1; hPhe = N[C@@H](CCc1ccccc1)C(=O)O; Ahx = NCCCCCC(=O)O

The subject of one data set is MCF-7 breast cancer line. The data set is classed as cell-based, human. How it is done:
(§1) The MTT assay was performed in accordance with previous reports. Briefly, the cells were seeded with a complete medium in 96-well plates at a rate of 10 000 cells and 100 µl per well, and adhesion to the plates was allowed for 24 h. Later, the complete medium was removed, and an incomplete medium was added for synchronization for another 24 h. The cells were then incubated at 37°C for 2 h with 100 µl of peptide at the evaluated concentrations (200, 100, 50, 25, 12.5 and 6.25 µg ml^−1). Next, the peptide was removed from the well and 100 µl of incomplete medium with 10% MTT was added and incubated for 4 h. The medium was replaced with 100 µl of isopropanol, and after 30 min of incubation at 37°C, the absorbance was measured at 575 nm. As a negative control, an incomplete culture medium with 10% MTT was used, and as a positive control, cells without MTT treatment were used. The IC50 value was determined from figure 1 (peptide concentration versus per cent cell viability) using a nonlinear regression model with variable slope and GraphPad Prism 9 statistical analysis software.

Another data set deals with trypsin (Sus scrofa, UniProt P00761).
The next data set has as its system human erythrocytes. In kind it is cell-based. To be noted: 2 h. How it is done: Haemolysis assays were performed in accordance with Cárdenas et al.. The blood was donated by healthy volunteers with blood type O^+. First, 5 ml of peripheral blood in EDTA was centrifuged at 500 r.p.m. for 15 min, and the erythrocytes were separated and washed three times with 0.9% saline solution. Then 100 µl of peptide solution (final concentrations of 200 at 6.2 µg ml^−1) was mixed with 100 µl of erythrocytes (2% haematocrit) and incubated at 37°C for 2 h. It was then centrifuged at 2500 r.p.m. for 5 min and the absorbance of the supernatant was measured at 450 nm. Two controls were used; positive control: distilled water, and negative control: saline solution 0.9%.

Another data set has as its target pepsin (Sus scrofa, UniProt P00791). The conditions noted are these: pH 2.
The test system of data set [1] is HEK-293 human kidney cell line. The data set is classed as cell-based. The conditions noted are these: 2 h. The procedure: as §1, with “The cells were then incubated at 37°C for 2 h with 100 µl of peptide at the evaluated concentrations (200, 100, 50, 25, 12.5 and 6.25 µg ml^−1).” left out
The test system of data set [2] is human primary fibroblasts. In kind it is cell-based.
Source text: Rink amide resin, Fmoc-Arg(Pbf)-OH, Fmoc-Trp(Boc)-OH, Fmoc-Gln(Trt)-OH, Fmoc-Phe-OH, Fmoc-Lys(Boc)-OH, Fmoc-Leu-OH, Fmoc-Gly-OH, Fmoc-6-Ahx-OH, Fmoc-Lys(Fmoc)-OH, Triton-X, piperidine, N,N-dimethylformamide (DMF), dichloromethane (DCM), dicyclohexylcarbodiimide (DCC), 1-hydroxy-6-chloro-benzotriazole (6-Cl-HOBt), ninhydrin, potassium cyanide (KCN), ethanol, pyridine, phenol, trifluoroacetic acid (TFA), ethyl ether, triisopropylsilane (TIS), ethanedithiol (EDT), acetonitrile (ACN), methanol (MeOH) and solid phase extraction columns Supelco, Trypsin-EDTA solution and pepsin 2500 units mg^−1 were purchased from Sigma-Aldrich (St Louis, MO, USA). The non-natural amino acids diphenylalanine, 1-naphthyl-phenylalanine, 4-benzoyl-phenylalanine, homophenylalanine (hF), 4-(Fmoc-amino) benzoic acid (4-Abz) and 2-(Fmoc-amino) benzoic acid (2-Abz) were obtained from AAPPTec (Louisville, KY, USA). The cell lines MCF-7, HeLa, HEK-293 were purchased from ATCC (Manassas, VA). The primary cell culture of fibroblasts was obtained from the foreskin by the Laboratory of Cellular Physiology of the National University of Colombia, and the fibroblasts were cultured and frozen. Some vials were thawed and cultured for up to seven passes, since no transformation/immortalization was done. Annexin V and Alexa Fluor 488 conjugate was purchased from Invitrogen (Eugene, Oregon). The DMEM culture medium and trypsin were obtained from Sigma-Aldrich (St Louis, MO, USA). Bovine fetal serum was purchased from Gibco (Waltham, MA, USA). Calcium assay kit and Fluorescein CaspGLOW Active Caspase-8 or Caspase-9 Staining Kit were obtained for BD Biosciences (San Diego, CA, USA) and Invitrogen Thermo Fisher Scientific (Waltham, MA, USA), respectively.
as §1, with “The cells were then incubated at 37°C for 2 h with 100 µl of peptide at the evaluated concentrations (200, 100, 50, 25, 12.5 and 6.25 µg ml^−1).” left out

Data set [3] relates to HeLa human cervical cancer cell line. In kind it is cell-based. To be noted: 2 h. The procedure:
as §1

Sequence of trypsin (P00761 9-231): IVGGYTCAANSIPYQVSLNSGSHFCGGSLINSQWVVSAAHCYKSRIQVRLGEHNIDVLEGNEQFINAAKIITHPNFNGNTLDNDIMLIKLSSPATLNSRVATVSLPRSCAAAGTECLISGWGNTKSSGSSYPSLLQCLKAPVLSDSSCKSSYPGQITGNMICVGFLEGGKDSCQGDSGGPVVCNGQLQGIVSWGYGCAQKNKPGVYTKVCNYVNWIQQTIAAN
Sequence of pepsin (P00791 60-385): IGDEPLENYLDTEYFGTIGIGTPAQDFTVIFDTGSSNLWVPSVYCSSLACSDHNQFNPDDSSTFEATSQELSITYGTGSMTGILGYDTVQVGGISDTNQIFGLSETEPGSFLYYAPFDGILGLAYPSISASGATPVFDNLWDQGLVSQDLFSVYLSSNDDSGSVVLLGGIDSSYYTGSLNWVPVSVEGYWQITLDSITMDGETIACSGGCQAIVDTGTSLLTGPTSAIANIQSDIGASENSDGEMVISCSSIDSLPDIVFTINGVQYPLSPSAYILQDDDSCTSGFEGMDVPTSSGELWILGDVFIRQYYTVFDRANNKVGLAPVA
Procedure for pepsin: Pepsin was dissolved in 0.010 M HCl (pH 2.0). An aliquot of 50 µl was added to each peptide solution in a 1 : 100 (w/w) ratio. The peptides were dissolved in H2O-TFA 0.05% (v/v). This was incubated at 37°C for 3 h, aliquots were taken at 0 and 3 h, and the samples were heated for 5 min and then cooled at 4°C for the thermal inactivation of pepsin and characterized via HPLC and LC-MS.
Procedure for trypsin: Trypsin (20 μg) was dissolved in 450 µl of the buffer supplied by the manufacturer, and 50 µl was added to each peptide solution, maintaining a protease : peptide ratio of 1 : 100 (w/w). The samples were incubated at 37°C for 24 h. Aliquots were taken at 0, 5, 10, 15 and 20 min, the enzymatic reaction was stopped by adding 1 M HCl, and the mixture was analysed via RP-HPLC and LC-MS. Bovine serum albumin (BSA) and bovine lactoferrin (bLF) were used as the positive control, and the negative control was the peptide in buffer solution without trypsin.

In general, IC50 refers to the midpoint of a concentration-inhibition curve. Consider `CC(C)C[C@H](NC(=O)[C@H](CCCCN)NC(=O)[C@H](CCCCN)NC(=O)[C@H](Cc1ccc(C(=O)c2ccccc2)cc1)NC(=O)[C@H](CCCNC(=N)N)NC(=O)[C@H](Cc1c[nH]c2ccccc12)NC(=O)[C@H](CCC(N)=O)NC(=O)[C@H](Cc1c[nH]c2ccccc12)NC(=O)[C@H](CCCNC(=N)N)NC(=O)[C@@H](N)CCCNC(=N)N)C(=O)NCC(=O)NCCCC[C@H](NC(=O)CNC(=O)[C@H](CC(C)C)NC(=O)[C@H](CCCCN)NC(=O)[C@H](CCCCN)NC(=O)[C@H](Cc1ccc(C(=O)c2ccccc2)cc1)NC(=O)[C@H](CCCNC(=N)N)NC(=O)[C@H](Cc1c[nH]c2ccccc12)NC(=O)[C@H](CCC(N)=O)NC(=O)[C@H](Cc1c[nH]c2ccccc12)NC(=O)[C@H](CCCNC(=N)N)NC(=O)[C@@H](N)CCCNC(=N)N)C(=O)NCCCCCC(N)=O` [^26[Bpa], (RRWQWR-Bpa-KKLG)2-K-Ahx] (I: H-RRWQWR[Bpa]KKLGK[Ahx]-NH2 / II: H-RRWQWR[Bpa]KKLG; amide I:12-II:C), for which, in the data set on MCF-7 breast cancer line (MTT, MCF-7, peptide treatment for 2 hours at 37°C, three independent experiments with n = 4, nonlinear regression, read-out: IC50), the IC50 turned out to be 17 µM.
In turn, `CC(C)C[C@H](NC(=O)[C@H](CCCCN)NC(=O)[C@H](CCCCN)NC(=O)[C@@H](NC(=O)[C@H](CCCNC(=N)N)NC(=O)[C@H](Cc1c[nH]c2ccccc12)NC(=O)[C@H](CCC(N)=O)NC(=O)[C@H](Cc1c[nH]c2ccccc12)NC(=O)[C@H](CCCNC(=N)N)NC(=O)[C@@H](N)CCCNC(=N)N)C(c1ccccc1)c1ccccc1)C(=O)NCC(=O)NCCCC[C@H](NC(=O)CNC(=O)[C@H](CC(C)C)NC(=O)[C@H](CCCCN)NC(=O)[C@H](CCCCN)NC(=O)[C@@H](NC(=O)[C@H](CCCNC(=N)N)NC(=O)[C@H](Cc1c[nH]c2ccccc12)NC(=O)[C@H](CCC(N)=O)NC(=O)[C@H](Cc1c[nH]c2ccccc12)NC(=O)[C@H](CCCNC(=N)N)NC(=O)[C@@H](N)CCCNC(=N)N)C(c1ccccc1)c1ccccc1)C(=O)NCCCCCC(N)=O` [^26[Dip], (RRWQWR-Dip-KKLG)2-K-Ahx] (I: H-RRWQWR[Dip]KKLGK[Ahx]-NH2 / II: H-RRWQWR[Dip]KKLG; amide I:12-II:C) showed an IC50 in the data set on MCF-7 breast cancer line (2 h) of 34 µM.
Take `CC(C)C[C@H](NC(=O)[C@H](CCCCN)NC(=O)[C@H](CCCCN)NC(=O)[C@H](CCc1ccccc1)NC(=O)[C@H](CCCNC(=N)N)NC(=O)[C@H](Cc1c[nH]c2ccccc12)NC(=O)[C@H](CCC(N)=O)NC(=O)[C@H](Cc1c[nH]c2ccccc12)NC(=O)[C@H](CCCNC(=N)N)NC(=O)[C@@H](N)CCCNC(=N)N)C(=O)NCC(=O)NCCCC[C@H](NC(=O)CNC(=O)[C@H](CC(C)C)NC(=O)[C@H](CCCCN)NC(=O)[C@H](CCCCN)NC(=O)[C@H](CCc1ccccc1)NC(=O)[C@H](CCCNC(=N)N)NC(=O)[C@H](Cc1c[nH]c2ccccc12)NC(=O)[C@H](CCC(N)=O)NC(=O)[C@H](Cc1c[nH]c2ccccc12)NC(=O)[C@H](CCCNC(=N)N)NC(=O)[C@@H](N)CCCNC(=N)N)C(=O)NCCCCCC(N)=O` [^26[hF], (RRWQWR-hF-KKLG)2-K-Ahx] (I: H-RRWQWR[hPhe]KKLGK[Ahx]-NH2 / II: H-RRWQWR[hPhe]KKLG; amide I:12-II:C): the “proteolytic degradation by trypsin, 10 min” value at trypsin is listed as “two fragments were also generated”. In addition, in the data set on human erythrocytes, the IC50 erythrocytes is >200(>59) µg mL^−1, the “selectivity index IC50 erythrocytes/IC50 HeLa” value is listed as greater than 3.7 and the “selectivity index IC50 erythrocytes/IC50 MCF-7” value is given as greater than 3.3. Also, the “proteolytic degradation by pepsin” value on pepsin was “unaffected”. Further, the “IC50 HEK-293” value in data set [1] is listed as 134(40) µg mL^−1. In the data set with MCF-7 breast cancer line (2 h), the IC50 came out at 18 µM and the “IC50 MCF-7” value is 60(18) µg mL^−1. In data set [2], the “selectivity index IC50 fibroblasts/IC50 HeLa” value is given as 1.2 and the “selectivity index IC50 fibroblasts/IC50 MCF-7” value is 1.0. In data set [2] (2 h), the IC50 fibroblasts is given as 63(19) µg mL^−1. Further, the “IC50 HeLa” value in data set [3] is 53(16) µg mL^−1.

The values are drawn from PMC10265003 (Royal Society Open Science, 2023).
